Source: patent publication US20250290117A1, “MOLECULAR PHENOTYPIC ANTIMICROBIAL SUSCEPTIBILITY TESTING” (priority 2024, published 2025)

Experiments:
E. coli = assay: Molecular phenotypic antimicrobial susceptibility test, specimen with two detected pathogens incubated together without isolation; format: cell-based, Escherichia coli; conditions: E. coli in specimen with two detected pathogens (E. coli and M. morganii) incubated together; for Ct of Sensitive Breakpoint: Ct of controls (average) 15.93; for Molecular Antimicrobial Susceptibility Result: at sensitive breakpoint
Method: (§1) Detection of Molecular Phenotypic Antimicrobial Susceptibility. Disclosed herein are the methods for the detection of phenotypic antimicrobial susceptibility via molecular methods. The present invention describes how a specimen 100 with a known microbial load is incubated and then exposed to a panel of antimicrobial agents to determine sensitivity (prevention of growth) or resistance (allowance of growth) to the specific antimicrobial agents tested utilizing molecular methods.
(§2) Sample Collection. Specimens 100 are collected from patients using sterile collection processes that are employed in routine clinical care. Specimens are transported to the testing facility in boric acid preservative. Specimens 100 are subsequently divided into a first sample 104 and a second sample 108.
(§3) Preparation of the Specimens for Testing. The specimens 100 are put through a pathogen identification process using PCR technology (e.g., using the first sample 104). The process for pathogen isolation includes steps of harvesting the pathogen (e.g., via centrifugation), isolating pathogen DNA via a DNA isolation and/or purification kit, and performing PCR on the pathogen DNA via PCR components (e.g., primers, enzymes, buffers) as would be known to the skilled artisan. Simultaneously, an additional aliquot of the same specimen (e.g., the second sample 108) is placed with liquid culture media and incubated for 4-6 hours. This aliquot is used for antimicrobial susceptibility testing if indicated based on the pathogen detection results. After pathogen identification is completed and if more than 10,000 cells/mL of bacteria (e.g., eligible bacteria) are detected in the source specimen, the second sample 108 then enters the antimicrobial susceptibility phase of testing. Specimens 100 with lower pathogen loads could also be utilized in the antibiotic susceptibility phase of testing with or without a longer incubation period.
(§4) Preparation of Antimicrobial Susceptibility Testing Plates. Antimicrobial solutions are prepared at known concentrations. The specific antimicrobials and their concentrations are selected based on the pathogen of interest and the described antimicrobial resistance breakpoints for that specimen pathogen and antimicrobial combination. These antimicrobials have been selected based on those commonly utilized by healthcare providers in routine clinical care for the specific type of suspected infection. The number and types of antimicrobials utilized can be customized based on the infection source, pathogen detected, patient-specific factors such as allergies or other health conditions (e.g., chronic kidney disease or concurrent medication use), or healthcare provider preferences such as antimicrobial availability or cost.
(§5) The antimicrobial solutions are prepared in liquid culture media (such as Muller Hinton Broth) to achieve the desired antimicrobial concentration and are then stored at −80° C. until use. For a given specimen, each antimicrobial is tested at a single or multiple antimicrobial concentration(s) which is its established breakpoints for sensitivity. The antimicrobial solutions are prepared and plated out for each specific pathogen. This allows ease of use on the day of testing after defrosting the plate 112. Table 1, which illustrates the results of molecular phenotypic antimicrobial susceptibility testing when more than one organism is present in the source specimen, provides an example of an antimicrobial plate 112 prepared for this purpose. Of note, control wells containing only culture media are present on all plates 112. This allows for evaluation of pathogen load when no antimicrobial is present.
(§6) Specimen Exposure to Antimicrobial Agents. The 1 mL aliquot of the specimen 100 previously mixed with culture media and incubated is obtained. Using optical density measurements as a guide, the specimen 100 is diluted to 0.5 McFarland. […]

M. morganii = assay: as above; format: cell-based, Morganella morganii; conditions: M. morganii in specimen with two detected pathogens (E. coli and M. morganii) incubated together; for Ct of Sensitive Breakpoint: Ct of controls (average) 19.99; for Molecular Antimicrobial Susceptibility Result: at sensitive breakpoint
Method: as §1, §2, §3, §4, §5, §6

| Compound | Ct of Sensitive Breakpoint (E. coli) | Molecular Antimicrobial Susceptibility Result (E. coli) | Ct of Sensitive Breakpoint (M. morganii) | Molecular Antimicrobial Susceptibility Result (M. morganii) |
| --- | --- | --- | --- | --- |
| Cc1nnc(SCC2=C(C(=O)O)N3C(=O)[C@@H](NC(=O)Cn4cnnn4)[C@H]3SC2)s1 [Cefazolin] | 15.46 | Resistant | 21.60 | Resistant |
| C[C@@H]1O[C@@H]1P(=O)(O)O [Fosfomycin] | 29.24 | Sensitive (Antimicrobial wells with pathogen load detected below the control wells (typically >2 cycle thresholds later) may be reported as Sensitive) | 33.43 | Sensitive (Antimicrobial wells with pathogen load detected below the control wells (typically >2 cycle thresholds later) may be reported as Sensitive) |
| CC1(C)S[C@@H]2[C@H](NC(=O)[C@H](N)c3ccccc3)C(=O)N2[C@H]1C(=O)O [Ampicillin] | 15.14 | Resistant | 20.73 | Resistant |
| CN(C)[C@@H]1C(O)=C(C(N)=O)C(=O)[C@@]2(O)C(O)=C3C(=O)c4c(O)cccc4[C@@](C)(O)[C@H]3C[C@@H]12 [Tetracycline] | 14.55 | Resistant | 31.64 | Sensitive (Antimicrobial wells with pathogen load detected below the control wells (typically >2 cycle thresholds later) may be reported as Sensitive) |
| Gentamicin | 17.37 | Resistant | 30.09 | Sensitive (Antimicrobial wells with pathogen load detected below the control wells (typically >2 cycle thresholds later) may be reported as Sensitive) |
| CO/N=C(\C(=O)N[C@@H]1C(=O)N2C(C(=O)[O-])=C(C[N+]3(C)CCCC3)CS[C@H]12)c1csc(N)n1 [Cefepime] | 26.80 | Sensitive (Antimicrobial wells with pathogen load detected below the control wells (typically >2 cycle thresholds later) may be reported as Sensitive) | 29.72 | Sensitive (Antimicrobial wells with pathogen load detected below the control wells (typically >2 cycle thresholds later) may be reported as Sensitive) |
| CO/N=C(\C(=O)N[C@@H]1C(=O)N2C(C(=O)O)=C(CSc3nc(=O)c(=O)[nH]n3C)CS[C@H]12)c1csc(N)n1 [Ceftriaxone] | 28.57 | Sensitive (Antimicrobial wells with pathogen load detected below the control wells (typically >2 cycle thresholds later) may be reported as Sensitive) | 30.03 | Sensitive (Antimicrobial wells with pathogen load detected below the control wells (typically >2 cycle thresholds later) may be reported as Sensitive) |
| C[C@@H](O)[C@H]1C(=O)N2C(C(=O)O)=C(S[C@@H]3CN[C@H](C(=O)N(C)C)C3)[C@H](C)[C@H]12 [Meropenem] | 25.70 | Sensitive (Antimicrobial wells with pathogen load detected below the control wells (typically >2 cycle thresholds later) may be reported as Sensitive) | 29.99 | Sensitive (Antimicrobial wells with pathogen load detected below the control wells (typically >2 cycle thresholds later) may be reported as Sensitive) |
| CO[C@@]1(NC(=O)Cc2cccs2)C(=O)N2C(C(=O)O)=C(COC(N)=O)CS[C@@H]21 [Cefoxitin] | 18.30 | Sensitive (Antimicrobial wells with pathogen load detected below the control wells (typically >2 cycle thresholds later) may be reported as Sensitive) | 23.01 | Sensitive (Antimicrobial wells with pathogen load detected below the control wells (typically >2 cycle thresholds later) may be reported as Sensitive) |
| Piperacillin/Tazobactam | 27.51 | Sensitive (Antimicrobial wells with pathogen load detected below the control wells (typically >2 cycle thresholds later) may be reported as Sensitive) | 29.64 | Sensitive (Antimicrobial wells with pathogen load detected below the control wells (typically >2 cycle thresholds later) may be reported as Sensitive) |
| Ampicillin/Sulbactam | 14.58 | Resistant | 22.00 | Sensitive (Antimicrobial wells with pathogen load detected below the control wells (typically >2 cycle thresholds later) may be reported as Sensitive) |
| O=C1CN(/N=C/c2ccc([N+](=O)[O-])o2)C(=O)N1 [Nitrofurantoin] | 27.36 | Sensitive (Antimicrobial wells with pathogen load detected below the control wells (typically >2 cycle thresholds later) may be reported as Sensitive) | 33.37 | Sensitive (Antimicrobial wells with pathogen load detected below the control wells (typically >2 cycle thresholds later) may be reported as Sensitive) |
| O=C(O)c1cn(C2CC2)c2cc(N3CCNCC3)c(F)cc2c1=O [Ciprofloxacin] | 31.81 | Sensitive (Antimicrobial wells with pathogen load detected below the control wells (typically >2 cycle thresholds later) may be reported as Sensitive) | 34.71 | Sensitive (Antimicrobial wells with pathogen load detected below the control wells (typically >2 cycle thresholds later) may be reported as Sensitive) |
| Trimethoprim/Sulfamethoxazole [TMP/SMX] | 27.67 | Sensitive (Antimicrobial wells with pathogen load detected below the control wells (typically >2 cycle thresholds later) may be reported as Sensitive) | 32.93 | Sensitive (Antimicrobial wells with pathogen load detected below the control wells (typically >2 cycle thresholds later) may be reported as Sensitive) |
| C[C@H]1COc2c(N3CCN(C)CC3)c(F)cc3c(=O)c(C(=O)O)cn1c23 [Levofloxacin] | 32.72 | Sensitive (Antimicrobial wells with pathogen load detected below the control wells (typically >2 cycle thresholds later) may be reported as Sensitive) | 29.62 | Sensitive (Antimicrobial wells with pathogen load detected below the control wells (typically >2 cycle thresholds later) may be reported as Sensitive) |
